concentration, AUC(0-t) and inhibition data for 1 compound are collected here from ChEMBL document CHEMBL5380862, “Unsymmetrical Phosphodiesters as GPR84 Antagonists with High Blood Exposure for the Treatment of Lung Inflammation” (J Med Chem, 2023).

Active and inactive are the calls of the source. The calls are words filed in the database; no cut-off is given here.

What is called AUC(0-t) is exposure summed from dosing to a finite time, without extrapolation to infinity. Low readings indicate low exposure, high ones high exposure.

Data set [1] in a line: Drug distribution in mouse lung at 5 mg/kg, po administered as single dose and measured after 2 hrs by LC-MS analysis. The data set is classed as ADME, organism-based. As to conditions: read-out: Drug uptake.
Data set [2] can be described thus: AUClast in ICR mouse at 2 mg/kg, iv administered as single dose. The data set is classed as ADME, organism-based. Details: dose 2 mg/kg, route iv. As to conditions: in vivo.
The nature of data set [3]: Drug distribution in mouse liver at 5 mg/kg, po administered as single dose and measured after 2 hrs by LC-MS analysis. The data set is classed as ADME, organism-based. Particulars: read-out: Drug uptake.
A further data set relates to Neutrophil. The data set can be described thus: Inhibition of cell migration in 3-hydroxydodecanoic acid-stimulated mouse CD11bpositive Ly6Gpositive neutrophils at 0.01 to 1 uM incubated for 1.5 hrs by flow cytometric analysis. The data set is classed as functional, cell-based. As to conditions: dose 0.01-1 µM. On the technique in general: A flow cytometer gives signals particle by particle.

In data set [4] the target is Beta-2 adrenergic receptor (Homo sapiens) (UniProt P07550). The data set can be described thus: Antagonist activity at ARbeta2 (unknown origin) expressed in HEK293 cells co-expressing Galpha16 assessed as inhibition of Isoproterenol induced calcium response upto 100 uM incubated for 10 mins by calcium mobilization assay. The data set is classed as functional, cell-based.
Sequence of Beta-2 adrenergic receptor (Homo sapiens) (P07550 whole entry, looked up): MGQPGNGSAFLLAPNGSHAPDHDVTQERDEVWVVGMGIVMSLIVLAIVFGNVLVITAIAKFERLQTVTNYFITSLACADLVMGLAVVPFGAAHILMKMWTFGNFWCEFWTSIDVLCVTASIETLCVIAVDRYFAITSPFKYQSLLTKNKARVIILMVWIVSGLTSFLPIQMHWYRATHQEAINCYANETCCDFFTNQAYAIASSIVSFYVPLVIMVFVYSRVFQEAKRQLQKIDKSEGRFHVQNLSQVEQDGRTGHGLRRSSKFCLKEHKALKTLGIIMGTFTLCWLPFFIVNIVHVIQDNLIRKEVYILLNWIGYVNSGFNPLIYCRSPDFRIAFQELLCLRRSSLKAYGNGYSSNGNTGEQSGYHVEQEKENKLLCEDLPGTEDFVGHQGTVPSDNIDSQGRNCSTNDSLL

Data set [5] addresses T1, Free fatty acid receptor 3 (Homo sapiens) (UniProt O14843).
T1 sequence (whole entry): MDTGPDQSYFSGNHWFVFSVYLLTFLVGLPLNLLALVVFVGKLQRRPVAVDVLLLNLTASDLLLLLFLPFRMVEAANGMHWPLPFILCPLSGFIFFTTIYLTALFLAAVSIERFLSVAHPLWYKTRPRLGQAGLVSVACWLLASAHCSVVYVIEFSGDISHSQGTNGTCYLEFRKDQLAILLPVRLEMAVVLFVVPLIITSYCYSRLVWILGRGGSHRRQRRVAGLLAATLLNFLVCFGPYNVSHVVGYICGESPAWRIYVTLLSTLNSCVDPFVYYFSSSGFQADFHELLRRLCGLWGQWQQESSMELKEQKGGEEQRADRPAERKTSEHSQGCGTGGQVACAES
The data set can be described thus: Antagonist activity at GPR41 (unknown origin) expressed in HEK293 cells co-expressing Galpha16 assessed as inhibition of sodium butyrate induced calcium response upto 100 uM incubated for 10 mins by calcium mobilization assay. The data set is classed as functional, cell-based. Background: A change in cytosolic calcium serves as a functional read-out for many receptors and channels.

The next data set deals with Monocyte. The data set can be described thus: Inhibition of cell migration in 6-n-[…]-stimulated mouse CD11bpositive Ly6Cpositive monocyte at 0.01 to 1 uM incubated for 1.5 hrs by flow cytometric analysis. The data set is classed as functional, cell-based. Particulars: dose 0.01-1 µM.
A short description of data set [6]: Drug distribution in mouse lung at 5 mg/kg, po administered as single dose and measured after 8 hrs by LC-MS analysis. The data set is classed as ADME, organism-based. As to conditions: read-out: Drug uptake.
In data set [7] the target is G-protein coupled receptor 84 (Mus musculus) (UniProt Q8CIM5). Description: Antagonist activity at mouse GPR84 expressed in HEK293 cells co-expressing Galpha16 assessed as inhibition of 6-OAU induced calcium response incubated for 10 mins by calcium mobilization assay. The data set is classed as functional, cell-based. As to conditions: filed as antagonist.
Sequence of G-protein coupled receptor 84 (Mus musculus) (Q8CIM5 whole entry): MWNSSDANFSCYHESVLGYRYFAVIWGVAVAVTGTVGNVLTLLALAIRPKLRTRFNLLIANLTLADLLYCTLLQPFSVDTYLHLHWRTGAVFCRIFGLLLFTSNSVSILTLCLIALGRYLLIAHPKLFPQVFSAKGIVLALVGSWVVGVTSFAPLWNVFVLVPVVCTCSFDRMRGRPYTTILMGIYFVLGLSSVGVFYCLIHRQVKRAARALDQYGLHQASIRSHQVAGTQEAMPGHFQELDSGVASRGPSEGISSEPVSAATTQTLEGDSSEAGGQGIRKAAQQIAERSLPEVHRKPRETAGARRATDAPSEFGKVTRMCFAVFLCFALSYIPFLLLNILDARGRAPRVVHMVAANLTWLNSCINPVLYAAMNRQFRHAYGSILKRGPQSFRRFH

On to `O=P([O-])(OC1=Cc2c(Cl)cccc2Sc2ccccc21)OC1=Cc2c(Cl)cccc2Sc2ccccc21.[Na+]`, for which the concentration at 2 h in data set [1] amounted to 60.5 ng/g; in data set [3], 1960 ng/g. The AUC(0-t) in data set [2] came to 1680 ng·h/mL. Besides, the inhibition entry (in the data set on Neutrophil; in the data set on Monocyte; in data set [7]) was “Active” throughout. Further, the inhibition result in data set [4] and in data set [5] was “inactive” each time. In data set [6], the concentration at 8 h was found to be 26.1 ng/g.
